Laboratory results from ChEMBL document CHEMBL4270499, “Recent discoveries of anticancer flavonoids” (Eur J Med Chem, 2017).
Converted amounts (≈) assume the structure as drawn.

Tests used:
CCRF-CEM = assay: Cytotoxicity in human CCRF-CEM cells by resazurin reduction assay; type: functional, cell-based
K562 [1] = assay: Cytotoxicity in human K562 cells by SRB assay; type: functional, cell-based
K562 [2] = assay: Cytotoxicity in human K562 cells after 24 hrs by trypan blue exclusion assay; type: functional, cell-based; settings: K562, 24 h
[3] = Inhibition of nuclear factor-kappa-B (unknown origin) expressed in human K562 cells pre-incubated for 2 hrs followed by TNFalpha stimulation for 6 hrs by luciferase reporter gene assay; type: cell-based
Caco-2 = assay: Cytotoxicity in human Caco2 cells after 72 hrs by MTT assay; type: functional, cell-based; settings: Caco-2, 72 h
A-375 = assay: Cytotoxicity in human A375 cells; type: functional, cell-based

COc1cc(O)c(OC)c(O)c1C(=O)/C=C/c1ccccc1
IC50 (CCRF-CEM): ≤ 10 µM

C[C@@H]1O[C@@H](Oc2c(-c3cc(O)c(O)c(O)c3)oc3cc(O)cc(O)c3c2=O)[C@H](O)[C@H](OC(=O)c2cc(O)c(O)c(O)c2)[C@H]1O
IC50 (K562 [1]): 30.5 µg/mL

COc1cc(O)cc(OC)c1C(=O)/C=C/c1ccccc1
IC50 (CCRF-CEM): ≤ 10 µM

CC1=Cc2c(C(C)C)ccc(C)c2C(=O)C1=O
IC50 (K562 [1]): 1.45 µM

C[C@H]1O[C@H](Oc2c(-c3ccc(O)cc3)oc3cc(O)cc(O)c3c2=O)[C@@H](O)[C@@H](O)[C@@H]1O (single isomer, unassigned) [KAEMPFEROL-3-O-RHAMNOSIDE]
IC50 (K562 [2]): 15.2 µM | IC50 [3]: 4.1 µM

COc1cc(O)cc(O)c1C(=O)/C=C/c1ccccc1 [CARDAMOMIN]
IC50 (CCRF-CEM): ≤ 10 µM

O=c1cc(-c2ccccc2)oc2cc(O)cc(O)c12 [CHRYSIN]
IC50 (Caco-2): 9.5 µM

O=c1cc(-c2ccccc2)oc2ccccc12 [FLAVONE]
IC50 (Caco-2): 21 µM

O=c1c(O)c(-c2ccccc2)oc2ccccc12 [FLAVONOL]
IC50 (Caco-2): 42.1 µM

O=c1[nH]cc(F)c(=O)[nH]1 [FLUOROURACIL]
IC50 (Caco-2): 60 µM

O=C1c2ccc(O)cc2O[C@H](c2ccc(O)c(O)c2)[C@H]1O [FUSTIN]
IC50 (K562 [1]): > 100 µg/mL

COc1ccc([C@@H]2CC(=O)c3c(O)cc(O)cc3O2)cc1O [HESPERETIN]
IC50 (Caco-2): 66.7 µM

O=c1c(O)c(-c2ccc(O)cc2)oc2cc(O)cc(O)c12 [KAEMPFEROL]
IC50 (A-375): 0.012 µg/mL (≈ 0.0421 µM)

O=c1c(O)c(-c2ccc(O)c(O)c2)oc2cc(O)cc(O)c12 [QUERCETIN]
IC50 (A-375): 0.00154 µg/mL (≈ 0.0051 µM)
